Measured values: patent publication US12421220B2, “Bicyclic-substituted glutarimide cereblon binders” (C4 THERAPEUTICS, INC., priority 2022, dated 2025)
pKd: −log10 of the molar value. Where two headings read alike, the source gives them in different places.

Experiments:
CRBN-DDB1 (CRBN_DDB1.3) [1] = target: T1, CRBN-DDB1 (CRBN_DDB1.3) (Homo sapiens, UniProt Q96SW2); test: Fluorescence polarization (FP) binding assay, CRBN_DDB1.3 construct; settings: for Kd: 0.05% PA, 0.1% BSA
Description: (§1) Example 2: Fluorescence Polarization (FP) Assay for Screening Compound Ligand Binders of CRBN-DDB1
(§2) Measuring compound ligand binding to CRBN-DDB 1 was carried out using an established sensitive and quantitative in vitro fluorescence polarization (FP) based binding assay. (See, I. J. Enyedy et al, J. Med. Chem., 44: […] [2001]). Compounds were dispensed from serially diluted DMSO stock into black 384-well compatible fluorescence polarization plates using an Echo acoustic dispenser. Compound binding to CRBN-DDB 1 was measured by displacement of an established CRBN binding ligand conjugated to an Alexa Fluor® dye (probe). A […] mixture containing 10nM CRBN-DDB1 and 5 nM probe in 50 mM Hepes, pH 7.4, 200 mM NaCl, 1% DMSO, 0.1% BSA and 0.05% o pluronic acid-127 acid was added to wells containing compound and incubated at room temperature for 60 min. Matching control wells excluding CRBN-DDB 1 were used to correct for background fluorescence. Plates were read on an Envision plate reader with appropriate FP filter sets. The corrected S (perpendicular) and P (parallel) values were used to calculate fluorescence polarization (FP) with the following equation: FP=1000*(S−G*P)/(S+G*P).
(§3) The fractional amount of bound probe (FB) to CRBN-DDB 1 as a function of compound concentration was fitted according to Wang; FEBS Letters 360, (1995), 111-114 to obtain fits for parameter offsets and binding constant (KA) of competitor compound.

CRBN-DDB1 (CRBN_DDB1.7) = CRBN-DDB1 (CRBN_DDB1.7) (Homo sapiens, UniProt Q96SW2); test: Fluorescence polarization (FP) binding assay, CRBN_DDB1.7 construct; settings: 0.05% PA, 0.1% BSA
Description: as §1, §2, §3

CRBN-DDB1 (CRBN_DDB1.3) [2] = target: T1, CRBN-DDB1 (CRBN_DDB1.3); test: Fluorescence polarization (FP) binding assay, CRBN_DDB1.3 construct; settings: 0.05% PA (no BSA); benzomorpholine binders; read-out: FP CRBN_DDB1.3 0.05% PA Ka
[3] = indoline binders, read-out: FP CRBN_DDB1.3 0.05% PA, 0.1% BSA ka nM
[4] = indoline binders, read-out: FP CRBN_DDB1.7 0.05% PA, 0.1% BSA ka nM
[5] = tetrahydroquinoline binders, read-out: FP CRBN_DDB1.3 0.05% PA, 0.1% BSA ka nM
[6] = tetrahydroquinoline binders, read-out: FP CRBN_DDB1.7 0.05% PA, 0.1% BSA ka nM
[7] = benzomorpholine binders, read-out: FP CRBN_DDB1.3 0.05% PA, 0.1% BSA Ka nM

Sequence of CRBN-DDB1 (CRBN_DDB1.7) (Q96SW2 81-442 limits assumed): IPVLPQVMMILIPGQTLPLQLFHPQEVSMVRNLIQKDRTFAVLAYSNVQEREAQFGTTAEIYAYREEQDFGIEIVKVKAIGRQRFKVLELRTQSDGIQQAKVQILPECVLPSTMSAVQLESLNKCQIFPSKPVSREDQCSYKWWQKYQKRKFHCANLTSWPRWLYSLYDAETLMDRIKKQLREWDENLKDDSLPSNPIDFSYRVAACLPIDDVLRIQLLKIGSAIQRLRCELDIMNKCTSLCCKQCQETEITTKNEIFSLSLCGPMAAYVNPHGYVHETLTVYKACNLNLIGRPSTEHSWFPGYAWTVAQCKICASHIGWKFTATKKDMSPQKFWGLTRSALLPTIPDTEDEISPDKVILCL
T1 sequence (Q96SW2 318-426 limits assumed): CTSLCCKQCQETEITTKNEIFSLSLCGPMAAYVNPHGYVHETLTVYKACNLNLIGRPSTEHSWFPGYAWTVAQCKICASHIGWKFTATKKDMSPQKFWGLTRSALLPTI

Structure (SMILES) | Kd (CRBN-DDB1 (CRBN_DDB1.3) [1]; [3]) [nM] | Kd (CRBN-DDB1 (CRBN_DDB1.7); [4]) [nM] | further results
CN(C(=O)OC(C)(C)C)C1CCN(c2cccc3c2CCN3C2CCC(=O)NC2=O)CC1 (racemic) [Compound 34-5, tert-butyl (1-(1-(2,6-dioxopiperidin-3-yl)indolin-4-yl)piperidin-4-yl)(methyl)carbamate] | < 100000 | < 100000 | –
CC(C)(C)OC(=O)N1CCC(c2cccc3c2CCN3[C@@H]2CCC(=O)NC2=O)CC1 (single isomer, unassigned) [Compound 41-4] | – | < 100000 | –
CC(C)(C)OC(=O)N1CCC(c2cccc3c2CCN3[C@H]2CCC(=O)NC2=O)CC1 (single isomer, unassigned) [Compound 41-5] | – | < 1000 | –
O=C1CC[C@H](N2CCc3c(N4CCC(CCO)CC4)cccc32)C(=O)N1 (single isomer, unassigned) [Compound 42-5] | < 100000 | < 100000 | –
O=C1CC[C@@H](N2CCc3c(N4CCC(CCO)CC4)cccc32)C(=O)N1 (single isomer, unassigned) [Compound 42-6] | < 1000 | < 1000 | –
O=C1CC[C@@H](N2CCc3c(N4CCC(O)CC4)cccc32)C(=O)N1 (single isomer, unassigned) [Compound 43-4] | – | < 1000 | –
O=C1CC[C@H](N2CCc3c(N4CCC(O)CC4)cccc32)C(=O)N1 (single isomer, unassigned) [Compound 43-5] | – | < 100000 | –
CN(C(=O)OC(C)(C)C)C1CCN(c2c(F)ccc3c2CCN3[C@H]2CCC(=O)NC2=O)CC1 (single isomer, unassigned) [Compound 44-8] | – | < 100000 | –
CN(C(=O)OC(C)(C)C)C1CCN(c2c(F)ccc3c2CCN3[C@@H]2CCC(=O)NC2=O)CC1 (single isomer, unassigned) [Compound 44-9] | – | < 100000 | –
O=C1CC[C@H](N2CCc3c(N4CCC5(CC4)OCCO5)cccc32)C(=O)N1 (single isomer, unassigned) [Compound 45-3] | < 1000 | < 100000 | –
O=C1CC[C@@H](N2CCc3c(N4CCC5(CC4)OCCO5)cccc32)C(=O)N1 (single isomer, unassigned) [Compound 45-4] | < 100000 | < 1000 | –
CN(C(=O)OC(C)(C)C)[C@H]1CC[C@H](c2c(F)ccc3c2CCN3C2CCC(=O)NC2=O)CC1 (single isomer, unassigned) [Compound 46-9a, tert-butyl ((1r,4r)-4-(1-(2,6-dioxopiperidin-3-yl)-5-fluoroindolin-4-yl)cyclohexyl)(methyl)carbamate] | < 100000 | < 100000 | –
CN(C(=O)OC(C)(C)C)[C@H]1CC[C@@H](c2c(F)ccc3c2CCN3C2CCC(=O)NC2=O)CC1 (single isomer, unassigned) [Compound 46-9b, tert-butyl ((1s,4s)-4-(1-(2,6-dioxopiperidin-3-yl)-5-fluoroindolin-4-yl)cyclohexyl)(methyl)carbamate] | < 100000 | < 100000 | –
CC(C)(C)OC(=O)N1CCC(c2ccc3c(c2F)CCN3[C@H]2CCC(=O)NC2=O)CC1 (single isomer, unassigned) [Compound 47-6] | < 100000 | < 100000 | –
CC(C)(C)OC(=O)N1CCC(c2ccc3c(c2F)CCN3[C@@H]2CCC(=O)NC2=O)CC1 (single isomer, unassigned) [Compound 47-7] | < 100000 | < 100000 | –
CC(C)(C)OC(=O)N1CCC(c2c(F)ccc3c2CCN3[C@H]2CCC(=O)NC2=O)CC1 (single isomer, unassigned) [Compound 49-6] | < 100000 | < 100000 | –

Structure (SMILES) | Kd (CRBN-DDB1 (CRBN_DDB1.3) [1]; [3]) [nM] | Kd (CRBN-DDB1 (CRBN_DDB1.7); [4]) [nM] | further results
CC(C)(C)OC(=O)N1CCC(c2c(F)ccc3c2CCN3[C@@H]2CCC(=O)NC2=O)CC1 (single isomer, unassigned) [Compound 49-7] | < 100000 | < 100000 | –
CC(C)(C)OC(=O)N1CCC(c2c(F)cc3c(c2F)CCN3[C@H]2CCC(=O)NC2=O)CC1 (single isomer, unassigned) [Compound 50-8] | < 100000 | < 100000 | –
CC(C)(C)OC(=O)N1CCC(c2c(F)cc3c(c2F)CCN3[C@@H]2CCC(=O)NC2=O)CC1 (single isomer, unassigned) [Compound 50-9] | < 100000 | < 100000 | –
CC(C)(C)OC(=O)N1CCC(c2cccc3c2CCCN3[C@@H]2CCC(=O)NC2=O)CC1 (single isomer, unassigned) [Compound 59-5] | – | – | Kd (CRBN-DDB1 (CRBN_DDB1.3) [1]; [5]): < 100000 nM; Kd (CRBN-DDB1 (CRBN_DDB1.7); [6]): < 100000 nM
CC(C)(C)OC(=O)N1CCC(c2cccc3c2CCCN3[C@H]2CCC(=O)NC2=O)CC1 (single isomer, unassigned) [Compound 59-6] | – | – | Kd (CRBN-DDB1 (CRBN_DDB1.3) [1]; [5]): < 100000 nM; Kd (CRBN-DDB1 (CRBN_DDB1.7); [6]): < 100000 nM
CC(C)(C)OC(=O)N1CCC(c2cccc3c2OCCN3C2CCC(=O)NC2=O)CC1 (stereo not drawn) [Compound 9-6, tert-butyl 4-[4-(2,6-dioxo-3-piperidyl)-2,3-dihydro-1,4-benzoxazin-8-yl]piperidine-1-carboxylate] | – | – | FP CRBN_DDB1.3 0.05% PA, 0.1% BSA Ka nM (CRBN-DDB1 (CRBN_DDB1.3) [1]; benzomorpholine binders): ** (≤100 μM is **); pKd (CRBN-DDB1 (CRBN_DDB1.3) [2]): ≥ 4.00
O=C1CCC(N2CCOc3c(C4CCNCC4)cccc32)C(=O)N1 (stereo not drawn) [Compound 9-11, 3-[8-(4-piperidyl)-2,3-dihydro-1,4-benzoxazin-4-yl]piperidine-2,6-dione] | – | – | pKd (CRBN-DDB1 (CRBN_DDB1.3) [2]): ≥ 4.00
CNC1CCN(c2cccc3c2O[C@@H](C)CN3C2CCC(=O)NC2=O)CC1 (stereo partly drawn) [Compound 18-13, 3-[(2S)-2-methyl-8-[4-(methylamino)-1-piperidyl]-2,3-dihydro-1,4-benzoxazin-4-yl]piperidine-2,6-dione] | – | – | Kd (CRBN-DDB1 (CRBN_DDB1.3) [1]; [7]): ≤ 100000 nM
O=C1CCC(N2CCOc3c(C4CCC5(CCNCC5)CC4)cccc32)C(=O)N1 (stereo not drawn) [Compound 20-7, 3-[8-(3-azaspiro[5.5]undecan-9-yl)-2,3-dihydro-1,4-benzoxazin-4-yl]piperidine-2,6-dione] | – | – | Kd (CRBN-DDB1 (CRBN_DDB1.3) [1]; [7]): ≤ 100000 nM
O=C1CCC(N2CCOc3c(N4CCC(O)(C(=O)O)CC4)cccc32)C(=O)N1 (stereo not drawn) [Compound 27-8, 1-[4-(2,6-dioxo-3-piperidyl)-2,3-dihydro-1,4-benzoxazin-8-yl]-4-hydroxy-piperidine-4-carboxylic acid] | – | – | Kd (CRBN-DDB1 (CRBN_DDB1.3) [1]; [7]): ≤ 100000 nM
O=C(O)CN1CCC(c2cccc3c2OCC(=O)N3C2CCC(=O)NC2=O)CC1 (stereo not drawn) [Compound 29-5, 2-(4-(4-(2,6-dioxopiperidin-3-yl)-3-oxo-3,4-dihydro-2H-benzo[b][1,4]oxazin-8-yl)piperidin-1-yl)acetic acid] | – | – | Kd (CRBN-DDB1 (CRBN_DDB1.3) [1]; [7]): ≤ 100000 nM
O=C1CCC(N2C(=O)COc3c(Br)cccc32)C(=O)N1 (stereo not drawn) [Compound 33-5, 3-(8-bromo-3-oxo-1,4-benzoxazin-4-yl)piperidine-2,6-dione] | – | – | Kd (CRBN-DDB1 (CRBN_DDB1.7); benzomorpholine binders, read-out: FP CRBN_DDB1.7 0.05% PA, 0.1% BSA Ka nM): ≤ 100000 nM
O=C1CCC(N2CCc3c(N4CCNCC4)cccc32)C(=O)N1 (stereo not drawn) [Compound 37-4, 3-(4-piperazin-1-ylindolin-1-yl)piperidine-2,6-dione] | – | < 100000 | –
O=C1CCC(N2CCc3c(N4CCC(C(F)(F)CO)CC4)cccc32)C(=O)N1 (stereo not drawn) [Compound 51-12, 3-[4-[4-(1,1-difluoro-2-hydroxy-ethyl)-1-piperidyl]indolin-1-yl]piperidine-2,6-dione] | < 100000 | – | –
CC(C)(C)OC(=O)N1CCC2(CC1)Cc1ccccc1N(C1CCC(=O)NC1=O)C2 (stereo not drawn) [Compound 64-7, tert-butyl 1-(2,6-dioxo-3-piperidyl)spiro[2,4-dihydroquinoline-3,4′-piperidine]-1′-carboxylate] | – | – | Kd (CRBN-DDB1 (CRBN_DDB1.7); [6]): < 100000 nM
O=C1CCC(N2CCCc3c(N4CCC(O)CC4)cccc32)C(=O)N1 (stereo not drawn) [Compound 65-7, 3-[5-(4-hydroxy-1-piperidyl)-3,4-dihydro-2H-quinolin-1-yl]piperidine-2,6-dione] | – | – | Kd (CRBN-DDB1 (CRBN_DDB1.7); [6]): < 100000 nM
